{"source": "paper PMC11513923", "about": "“Discovery of ZLC491 as a Potent, Selective, and Orally Bioavailable CDK12/13 PROTAC Degrader” (Journal of Medicinal Chemistry, 2024)", "key": {"CDK12/13 [1]": {"system": "CDK12/13", "assay": "Immunoblotting of CDK12 and CDK13 in HCC38 cells", "format": "cell-based, human", "details": "increasing concentrations, 15 h", "description": "(§1) To further characterize the compound, we determined the half-degradation concentration (DC50) values of ZLC491 in MDA-MB-231 cells. […] We also treated MDA-MB-231 cells with 1 μM ZLC491 at various time points.\n(§2) (A) Immunoblotting of CDK12 and CDK13 in MDA-MB-231 cells treated with increasing concentrations of ZLC491 for 15 h (left). Percent remaining CDK12 and CDK13 proteins were plotted for DC50 determination (right). Protein levels were quantified using ImageJ and normalized to corresponding α-tubulin, then plotted using Graphpad Prism 8.0. The data were representative of three independent experiments; (B) immunoblotting of CDK12 and CDK13 proteins in MDA-MB-231 cells treated with ZLC491 for various time points; immunoblotting of CDK12 and CDK13 in HCC38 (C) and MDA-MB-436 (D) cells treated with increasing concentrations of ZLC491 for 15 h. α-Tubulin was used as a loading control. TEXT PRINTED IN THE PICTURE: (A) ZLC491: MDA-MB-231: CDK12 DC50 = 0.032μM; MDA-MB-231: CDK13 DC50 = 0.028μM DOUBTS OF THE COPYIST ABOUT THIS PICTURE: ZLC491, CDK12 DC50: 0.032 read from small print, the digits 3 and 2 are uncertain / ZLC491, CDK13 DC50: 0.028 read from small print, the last digit may be 8, 6 or 3 […]"}, "CCNK": {"system": "CCNK", "assay": "TMT-labeled quantitative proteomics in MDA-MB-231 cells", "format": "cell-based, Homo sapiens", "details": "8 h", "description": "The global proteomic selectivity of ZLC491 was investigated by using the tandem mass tag (TMT) labeled mass-spectrometry. […] CDK13 was not detected in either degrader treatment groups or DMSO control groups, likely due to its insufficient cellular expression for mass spectrometry detection.\nFigure 5 ZLC491 degraded CDK12/13 with high selectivity. (A) Global proteomic analysis of ZLC491 in MDA-MB-231 cells after 8 h treatment of DMSO or 2 μM ZLC491; (B) mass-spec quantification of CDKs changes; (C) immunoblotting of target protein degradation in samples for proteomic analysis.\nMDA-MB-231 cells were seeded at 8 × 10^5 cells in 6 cm dishes 24 h before treating with 2 μM ZLC491 or DMSO in quadruplicate or triplicate for 8 h. […] Samples were quantified using a micro-BCA protein assay kit (Thermo Fisher Scientific) and 600 μg of each sample was processed and digested using the filter aided sample preparation (FASP) method followed by alkylation with iodoacetamide and digestion with trypsin. […]\nThe fractions were analyzed sequentially on an Orbitrap Fusion Lumos Mass Spectrometer (Thermo Scientific) coupled to a NanoLC-1200 UHPLC system (Thermo Scientific) with C18 capillary column. […] MS3 precursor were fragmented by HCD and analyzed with Orbitrap at NCE 65, AGC 1E5, resolution 60000. […]"}, "CDK12/13 [2]": {"system": "CDK12/13", "assay": "Immunoblotting of CDK12 and CDK13 in MDA-MB-436 cells", "format": "cell-based, human", "details": "increasing concentrations, 15 h", "description": "as §1, §2"}}, "data": [{"smiles": "N#Cc1ccc(N[C@H]2CC[C@H](N(C(=O)NCc3ccccc3)c3ccc(N4CCN(C5CCN(c6cc7c(cc6F)C(=O)N(C6CCC(=O)NC6=O)C7=O)CC5)CC4)cc3)CC2)nc1", "note": "(stereo partly shown) [ZLC491, 3-Benzyl-1-((1r,4r)-4-((5-cyanopyridin-2-yl)amino)cyclohexyl)-1-(4-(4-(1-(2-(2,6-dioxopiperidin-3-yl)-6-fluoro-1,3-dioxoisoindolin-5-yl)piperidin-4-yl)piperazin-1-yl)phenyl)urea]", "values": [{"measurement": "depletion of CDK12/13", "setting": "CDK12/13 [1]", "result": "concentration-dependent manner"}, {"measurement": "FC_4-91 (CCNK)", "setting": "CCNK; 2 μM ZLC491 vs DMSO", "result": 0.4255}, {"measurement": "CCNK level in global proteomics", "setting": "CCNK; 2 μM", "result": "significantly decreased"}, {"measurement": "depletion of CDK12/13", "setting": "CDK12/13 [2]", "result": "concentration-dependent manner"}]}]}
